One experiment has as its target CK1δ (Homo sapiens (Human), UniProt P48730). The experiment is described as follows: CK1δ kinase assay (Caliper LABCHIP electrophoretic separation of fluoresceinated peptide substrate and product). Format: biochemical. To be noted: 200 pM enzyme, 50 μM ATP, 22 hours at room temperature. In short, it runs like this: (§1)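 Kinase reactions ran 22 h at room temperature, were stopped with EDTA, and phosphorylated product was separated electrophoretically from unphosphorylated fluoresceinated peptide. Compounds were tested at eleven concentrations from 10 mM DMSO stocks. IC50 by non-linear regression.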

A further experiment addresses CK1ε (Homo sapiens (Human), UniProt P49674). The experiment is described as follows: CK1ε kinase assay (Caliper LABCHIP electrophoretic separation of fluoresceinated peptide substrate and product). The format is biochemical. The settings on record: 200 pM enzyme, 50 μM ATP, 22 hours at room temperature. Put shortly: as §1

Chain of CK1δ (P48730 whole entry): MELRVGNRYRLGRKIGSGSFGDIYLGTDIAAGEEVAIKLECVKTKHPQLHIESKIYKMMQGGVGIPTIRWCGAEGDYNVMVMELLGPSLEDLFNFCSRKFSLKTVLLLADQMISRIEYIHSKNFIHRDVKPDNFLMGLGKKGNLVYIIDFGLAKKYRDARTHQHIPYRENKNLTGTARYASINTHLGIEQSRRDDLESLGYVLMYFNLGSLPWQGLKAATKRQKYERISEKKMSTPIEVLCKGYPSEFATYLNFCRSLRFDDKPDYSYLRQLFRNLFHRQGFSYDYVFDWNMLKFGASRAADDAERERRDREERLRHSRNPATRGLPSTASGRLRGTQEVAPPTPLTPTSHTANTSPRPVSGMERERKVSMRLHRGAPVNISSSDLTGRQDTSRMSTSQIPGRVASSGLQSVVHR
Chain of CK1ε (P49674 whole entry): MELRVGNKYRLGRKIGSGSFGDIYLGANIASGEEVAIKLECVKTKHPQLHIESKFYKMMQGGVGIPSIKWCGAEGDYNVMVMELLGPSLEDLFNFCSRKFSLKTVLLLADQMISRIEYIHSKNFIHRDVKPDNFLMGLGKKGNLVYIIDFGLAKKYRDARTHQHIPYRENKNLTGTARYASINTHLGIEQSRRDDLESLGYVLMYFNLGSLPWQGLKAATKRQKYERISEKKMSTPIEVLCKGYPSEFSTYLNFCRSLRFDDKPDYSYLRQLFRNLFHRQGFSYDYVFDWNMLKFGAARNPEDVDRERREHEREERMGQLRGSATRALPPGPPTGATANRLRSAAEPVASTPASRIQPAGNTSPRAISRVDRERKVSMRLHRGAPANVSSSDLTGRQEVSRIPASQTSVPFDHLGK

The term IC50 denotes the concentration at which inhibition is half-maximal. Low readings indicate greater potency, high ones weaker potency. As to `Cc1oncc1C(=O)N1CCC(n2cnc(-c3ccc(F)cc3)c2-c2ccc3nc(NC(=O)c4ccnc(F)c4)cn3n2)CC1` [Compound 62, 2-fluoro-N-(6-(4-(4-fluorophenyl)-1-(1-(5-methylisoxazole-4-carbonyl)piperidin-4-yl)-1H-imidazol-5-yl)imidazo[1,2-b]pyridazin-2-yl)isonicotinamide], the 50% inhibitory concentration (IC50) on CK1δ was found to be 0.313 nM; on CK1ε it was 0.256 nM.

As to `O=C(Nc1cn2nc(-c3c(-c4ccc(F)cc4)nc4ccc(NC5CCC5)nn34)ccc2n1)c1ccncc1` [Compound 227], the IC50 against CK1δ worked out at 12.5 nM; at CK1ε, 36.9 nM.

Take `O=C(Nc1cn2nc(-c3c(-c4ccc(F)cc4)nc4ccccn34)ccc2n1)c1ccnc(O)c1` [Compound 195, N-(6-(2-(4-fluorophenyl)imidazo[1,2-a]pyridin-3-yl)imidazo[1,2-b]pyridazin-2-yl)-2-hydroxyisonicotinamide]: the results for the IC50 on CK1δ and against CK1ε were 0.603 nM and 4.87 nM, respectively.

With `O=C(Nc1cn2nc(-c3c(-c4ccc(F)cc4)ncn3C3CCN(C(=O)C4CC4(F)F)CC3)ccc2n1)c1ccnc(F)c1` (centres unmarked) [Compound 65, N-(6-(1-(1-(2,2-difluorocyclopropanecarbonyl)piperidin-4-yl)-4-(4-fluorophenyl)-1H-imidazol-5-yl)imidazo[1,2-b]pyridazin-2-yl)-2-fluoroisonicotinamide], the IC50 turned out to be 0.256 nM against CK1δ and 1.37 nM against CK1ε.

Consider `CC(=O)N1CCCC1C(=O)Nc1cn2nc(-c3c(-c4ccc(F)cc4)nc(C)n3C)ccc2n1` (centres unmarked) [Compound 363, 1-acetyl-N-(6-(4-(4-fluoro-phenyl)-1,2-dimethyl-1H-imidazol-5-yl)imidazo[1,2-b]pyridazin-2-yl)prolinamide], for which the results for the IC50 at CK1δ and at CK1ε were 2.36 nM and 26.2 nM, respectively.

As for `O=C(Nc1cn2nc(-c3c(-c4ccc(F)cc4)ncn3C3CCN(CCCF)CC3)ccc2n1)c1cc(F)nc(F)c1` [Compound 88, 2,6-difluoro-N-(6-(4-(4-fluorophenyl)-1-(1-(3-fluoropropyl)piperidin-4-yl)-1H-imidazol-5-yl)imidazo[1,2-b]pyridazin-2-yl)isonicotinamide], the figures for the IC50 against CK1δ and at CK1ε were 0.38 nM and 2.56 nM, respectively.

As to `O=C(Nc1cn2nc(-c3c(-c4ccc(F)cc4)nc4ccccn34)ccc2n1)c1ccnc(N2CCOCC2)c1` [Compound 203, N-(6-(2-(4-fluorophenyl)imidazo[1,2-a]pyridin-3-yl)imidazo[1,2-b]pyridazin-2-yl)-2-morpholinoisonicotinamide], the IC50 is 0.447 nM on CK1δ and 3.68 nM against CK1ε.

In the case of `N#Cc1ccc(C(=O)N2CCC(n3cnc(-c4ccc(F)cc4)c3-c3ccc4nc(NC(=O)c5ccnc(F)c5)cn4n3)CC2)cc1` [Compound 52, N-(6-(1-(1-(4-cyanobenzoyl)piperidin-4-yl)-4-(4-fluorophenyl)-1H-imidazol-5-yl)imidazo[1,2-b]pyridazin-2-yl)-2-fluoroisonicotinamide], the IC50 at CK1δ was determined as 0.347 nM; at CK1ε, 1.44 nM.

Take `O=C(Nc1cn2nc(-c3c(-c4ccc(F)cc4)nc4n3CCN(C(=O)CCC(F)(F)F)C4)ccc2n1)c1ccnc(F)c1` [Compound 462, 2-Fluoro-N-(6-(2-(4-fluorophenyl)-7-(4,4,4-trifluorobutanoyl)-5,6,7,8-tetrahydroimidazo[1,2-a]pyrazin-3-yl)imidazo[1,2-b]pyridazin-2-yl)isonicotinamide]: the figures for the IC50 against CK1δ and on CK1ε were 1.2 nM and 6.5 nM, respectively.

Consider `O=C(Nc1cn2nc(-c3c(-c4ccc(F)cc4)ncn3C3CCN(C(=O)CC(F)(F)F)CC3)ccc2n1)c1ccncc1` [Compound 6, N-(6-(4-(4-fluorophenyl)-1-(1-(3,3,3-trifluoropropanoyl)piperidin-4-yl)-1H-imidazol-5-yl)imidazo[1,2-b]pyridazin-2-yl)isonicotinamide], for which the results for the IC50 against CK1δ and against CK1ε were 0.264 nM and 1.17 nM, respectively.

Regarding `CC1(C)CC1C(=O)N1CCC(n2cnc(-c3ccc(F)cc3)c2-c2ccc3nc(NC(=O)c4ccnc(F)c4)cn3n2)CC1` (centres unmarked) [Compound 66, N-(6-(1-(1-(2,2-dimethylcyclopropanecarbonyl)piperidin-4-yl)-4-(4-fluorophenyl)-1H-imidazol-5-yl)imidazo[1,2-6]pyridazin-2-yl)-2-fluoroisonicotinamide], the IC50 against CK1δ was 0.928 nM; at CK1ε it was 7.2 nM.

On to `Cc1nc(-c2cccnc2)sc1C(=O)Nc1cn2nc(-c3c(-c4ccc(F)cc4)ncn3C3CCN(CCO)CC3)ccc2n1` [Compound 97, N-(6-(4-(4-fluorophenyl)-1-(1-(2-hydroxyethyl)piperidin-4-yl)-1H-imidazol-5-yl)imidazo [1,2-b]pyridazin-2-yl)-4-methyl-2-(pyridin-3-yl) thiazole-5-carboxamide], for which the IC50 at CK1δ came to 0.034 nM; against CK1ε, 0.095 nM.

Consider `O=C(Nc1cn2nc(-c3c(-c4ccc(F)cc4)ncn3C3CCN(C(=O)C4(C(F)(F)F)CCC4)CC3)ccc2n1)c1ccnc(F)c1` [Compound 49, 2-fluoro-N-(6-(4-(4-fluorophenyl)-1-(1-(1-(trifluoromethyl)cyclobutanecarbonyl)piperidin-4-yl)-1H-imidazol-5-yl)imidazo[1,2-b]pyridazin-2-yl)isonicotinamide], for which the IC50 came to 1.06 nM on CK1δ and 7.33 nM at CK1ε.

Consider `Cc1nc(-c2ccc(F)cc2)c(-c2ccc3nc(NC(=O)c4ccnc(F)c4)c(Br)n3n2)n1C` [Compound 411, N-(3-Bromo-6-(4-(4-fluorophenyl)-1,2-dimethyl-1H-imidazol-5-yl)imidazo[1,2-b]pyridazin-2-yl)-2-fluoroisonicotinamide], for which the half-inhibitory concentration (IC50) on CK1δ came out at 1.61 nM; against CK1ε, 19.4 nM.

Take `Cc1nc(-c2ccc(Cl)cc2)c(-c2ccc3nc(NC(=O)c4ccnc(F)c4)cn3n2)n1CCF` [Compound 293, N-(6-(4-(4-chlorophenyl)-1-(2-fluoroethyl)-2-methyl-1H-imidazol-5-yl)imidazo[1,2-b]pyridazin-2-yl)-2-fluoroisonicotinamide]: the 50% inhibitory concentration (IC50) at CK1δ is 0.109 nM; against CK1ε, 1.28 nM.

Consider `O=C(Nc1cn2nc(-c3c(-c4ccc(F)cc4)nc(C4CC4)n3C3CCN(c4ccncc4)CC3)ccc2n1)c1ccnc(F)c1` [Compound 123, N-(6-(2-cyclopropyl-4-(4-fluorophenyl)-1-(1-(pyridin-4-yl)piperidin-4-yl)-1H-imidazol-5-yl)imidazo[1,2-b]pyridazin-2-yl)-2-fluoroisonicotinamide], for which the figures for the IC50 against CK1δ and on CK1ε were 2.86 nM and 16.7 nM, respectively.

`CC(C)(C)C(=O)Nc1cn2nc(-c3c(-c4ccc(F)cc4)ncn3CC3CNC(=O)C3)ccc2n1` (centres unmarked) [Compound 277, N-(6-(4-(4-fluorophenyl)-1-((5-oxo-pyrrolidin-3-yl)methyl)-1H-imidazol-5-yl)imidazo[1,2-b]pyridazin-2-yl)pivalamide]: the half-maximal inhibitory concentration (IC50) at CK1δ stood at 0.238 nM; at CK1ε, 3.82 nM.

`Cc1c(C(=O)Nc2cn3nc(-c4c(-c5ccc(F)cc5)nc(C)n4C)ccc3n2)cccc1-c1cccnc1` [Compound 403, N-(6-(4-(4-Fluorophenyl)-1,2-dimethyl-1H-imidazol-5-yl)imidazo[1,2-b]pyridazin-2-yl)-2-methyl-3-(pyridin-3-yl)benzamide]: the half-inhibitory concentration (IC50) on CK1δ was 0.582 nM; against CK1ε, 1.61 nM.

As to `Cc1nc(-c2ccc(F)cc2)c(-c2ccc3nc(NC(=O)c4ccncc4)cn3n2)[nH]1` [Compound 228, N-(6-(4-(4-fluorophenyl)-2-methyl-1H-imidazol-5-yl)imidazo[1,2-b]pyridazin-2-yl)isonicotinamide], the IC50 is 2.07 nM on CK1δ and 1.82 nM at CK1ε.

`CC(C)(C)C(=O)Nc1cn2nc(-c3c(-c4ccc(F)cc4)ncn3CCc3cccnc3)ccc2n1` [Compound 282, N-(6-(4-(4-fluorophenyl)-1-(2-(pyridin-3-yl)ethyl)-1H-imidazol-5-yl)imidazo[1,2-b]pyridazin-2-yl)pivalamide]: the IC50 against CK1δ was found to be 0.766 nM; on CK1ε it was 13.2 nM.

In the case of `O=C(Nc1cn2nc(-c3c(-c4ccc(F)cc4)ncn3CC3CC(F)(F)C3)ccc2n1)c1ccnc(F)c1` [Compound 249, N-(6-(1-((3,3-difluorocyclobutyl)methyl)-4-(4-fluorophenyl)-1H-imidazol-5-yl)imidazo[1,2-b]pyridazin-2-yl)-2-fluoroiso-nicotinamide], the IC50 came out at 0.371 nM on CK1δ and 1.1 nM on CK1ε.

For the molecule `O=C(Nc1cn2nc(-c3c(-c4ccc(F)cc4)ncn3-c3ccc(F)cc3)ccc2n1)c1cc(F)nc(F)c1` [Compound 418, N-(6-(1,4-bis(4-Fluorophenyl)-1H-imidazol-5-yl)imidazo[1,2-b]pyridazin-2-yl)-2,6-difluoroisonicotinamide], the IC50 against CK1δ was determined as 6.4 nM; on CK1ε, 79.2 nM.

As for `CC(C)(O)C(=O)N1CCn2c(nc(-c3ccc(F)cc3)c2-c2ccc3nc(NC(=O)c4ccnc(F)c4)cn3n2)C1` [Compound 470, 2-Fluoro-N-(6-(2-(4-fluorophenyl)-7-(2-hydroxy-2-methylpropanoyl)-5,6,7,8-tetrahydroimidazo[1,2-a]pyrazin-3-yl)imidazo[1,2-b]pyridazin-2-yl)isonicotinamide], the figures for the IC50 against CK1δ and on CK1ε were 1.1 nM and 8.1 nM, respectively.

On to `O=C(Nc1cn2nc(-c3c(-c4ccc(F)cc4)ncn3C3CCN(Cc4ccon4)CC3)ccc2n1)c1ccncc1` [Compound 3, N-(6-(4-(4-fluorophenyl)-1-(1-(isoxazol-3-ylmethyl)piperidin-4-yl)-1H-imidazol-5-yl)imidazo[1,2-b]pyridazin-2-yl)isonicotinamide], for which the IC50 at CK1δ was determined as 0.306 nM; against CK1ε it was 0.298 nM.

On to `CC(C)C(=O)N1CCn2c(nc(-c3ccc(F)cc3)c2-c2ccc3nc(NC(=O)c4ccnc(F)c4)cn3n2)C1` [Compound 463, 2-Fluoro-N-(6-(2-(4-fluorophenyl)-7-isobutyryl-5,6,7,8-tetrahydroimidazo[1,2-a]pyrazin-3-yl)imidazo[1,2-b]pyridazin-2-yl)isonicotinamide], for which the IC50 against CK1δ was determined as 0.5 nM; against CK1ε, 3.8 nM.

These data come from patent US9556179B2 (BRISTOL-MYERS SQUIBB COMPANY, priority 2012, dated 2017).
